This note sets out measurements from patent US10669296B2, “LXR agonists and uses thereof” (Rgenix, Inc., priority 2014, dated 2020).

Molecules are shown by their SMILES.

One test relates to ApoE. Kind of test: ApoE gene expression analysis by qRT-PCR in MeWo cancer cells. The class given is cell-based. Conditions: 48 h; for Emax at 1 µM / Emax at 10 µM: read-out: ApoE gene expression in relation to GW3965 at 1 μM (100%). The method, then:
Cancer cells (MeWo) were treated in presence of drug or control (DMSO) at indicated concentrations for 48 h. RNA was extracted from whole cell lysates using the Total RNA Purification Kit (17200, Norgen, Thorold, Canada). 600 ng of total RNA was then reverse transcribed into cDNA using the Verso cDNA Synthesis Kit (AB-1453/B, Fisher Scientific). 6 ng of the resulting cDNA was then mixed with SYBR green PCR Master Mix (4309155, Applied Biosystems) and the appropriate primers. Each reaction was performed in quadruplicate, and mRNA expression was quantified by performing real-time PCR amplification using a StepOne Plus Real-Time PCR System (Applied Biosystems). GAPDH was used as an endogenous control for normalization. EC50 values were calculated using Prism6 software and plotting expression values versus drug concentration. The following primers were used: [table] The results are shown in relation to GW3965 ApoE expression at 1 μM (i.e. 100%).

For another test, the system named is Cancer cells (MeWo). Nature of the test: Matrigel invasion assay. The class given is cell-based. Conditions: 1 μM drug, invasion 24 h. The protocol:
Cancer cells (MeWo) were pre-treated in presence of 1 μM drug or control (DMSO) for 72 h after which cancer cells were switched to serum-starvation in 0.2% FBS DMEM-based media for 16 h in the presence of the drug or control, respectively. Trans-well invasion chambers (354480, BD Biosciences, Bedford, Mass.) were pre-equilibrated in DMEM-based media prior to the beginning of the assay by adding 0.5 ml of starvation media to the top and bottom chambers. After 30 min, the media in the top chamber was removed, and 0.5 ml of media containing 1×10^5 cancer cells in the presence of the drug, was added into each matrigel-coated trans-well insert. Cells were allowed to invade through the matrigel-coated inserts for 24 h at 37° C.

Regarding `O=C(Cc1cccc(OCCCN(Cc2cccc(C(F)(F)F)c2Cl)CC(c2ccccc2)c2ccccc2)c1)NO` [Compound 1, 2-{3-[3-({[2-chloro-3-(trifluoromethyl)phenyl]methyl}(2,2-diphenylethy)amino)propoxy]phenyl}-N-hydroxyacetamide], in the test with ApoE (Homo sapiens, MeWo), the concentration giving a half-maximal response (EC50) (as a rule, the concentration giving half of the maximal effect) is less than 1000 nM and the Emax at 10 µM is less than 40%. Besides, the Emax at 1 µM in the test on ApoE (Homo sapiens, MeWo, 1 μM) is more than 80%. Further, in the test on Cancer cells (MeWo), the “% of Cells Migrated Compared to Control” value is reported as less than 95%.

For `C[C@H](CCOc1cc(F)c(CO)c(S(C)(=O)=O)c1)N(Cc1cccc(C(F)(F)F)c1Cl)CC(c1ccccc1)c1ccccc1` [Compound 9, {4-[(3R)-3-({[2-chloro-3-(trifluoromethyl)phenyl]methyl}(2,2-diphenylethyl)amino)butoxy]-2-fluoro-6-methanesulfonylphenyl}methanol], in the test on ApoE (Homo sapiens, MeWo), the EC50 was less than 300 nM and the Emax at 10 µM is more than 80%. In addition, in the test on ApoE (Homo sapiens, MeWo, 1 μM), the Emax at 1 µM was more than 40%. Moreover, the “% of Cells Migrated Compared to Control” value in the test with Cancer cells (MeWo) is less than 50%.

For `CS(=O)(=O)N1CCCC(OCCCN(Cc2cccc(C(F)(F)F)c2Cl)CC(c2ccccc2)c2ccccc2)C1` (stereo not shown) [Compound 29, {[2-chloro-3-(trifluoromethyl)phenyl]methyl}(2,2-diphenylethyl){3-[(1-methanesulfonylpiperidin-3-yl)oxy]propyl}amine], in the test on ApoE (1 μM), the “ApoE gene expression in relation to GW3965 at 1 μM (100%)” value was “++ (“++” > 40% induction)”. This molecule registered an EC50 with ApoE of less than 300 nM. Further, the Emax at 10 µM in the test with ApoE (Homo sapiens, MeWo) is more than 80%. The “% of Cells Migrated Compared to Control” value with Cancer cells (MeWo) is given as less than 50%.

Consider `CS(=O)(=O)c1cc(OCCCN(Cc2cccc(C(F)(F)F)c2Cl)CC(c2ccccc2)C2CCCCC2)cc(F)c1CO` (stereo not shown) [Compound 78, {4-[3-({[2-chloro-3-(trifluoromethyl)phenyl]methyl}(2-cyclohexyl-2-phenylethyl)amino)propoxy]-2-fluoro-6-methanesulfonylphenyl}methanol], for which the Emax at 1 µM in the test with ApoE (Homo sapiens, MeWo, 1 μM) is more than 40%.

Take `C[C@@H](CN(CCCOc1cc(F)c(CO)c(S(C)(=O)=O)c1)Cc1cccc(C(F)(F)F)c1Cl)c1ccccc1` [Compound 79, {4-[3-({[2-chloro-3-(trifluoromethyl)phenyl]methyl}[(2R)-2-phenylpropyl]amino)propoxy]-2-fluoro-6-methanesulfonylphenyl}methanol]: in the test with ApoE (Homo sapiens, MeWo), the EC50 is less than 1000 nM and the Emax at 10 µM is more than 80%. In addition, the Emax at 1 µM with ApoE (Homo sapiens, MeWo, 1 μM) is more than 80%.

As to `C[C@H](CN(CCCOc1cc(F)c(CO)c(S(C)(=O)=O)c1)Cc1cccc(C(F)(F)F)c1Cl)c1ccccc1` [Compound 80, {4-[3-({[2-chloro-3-(trifluoromethyl)phenyl]methyl}[(2S)-2-phenylpropyl]amino)propoxy]-2-fluoro-6-methanesulfonylphenyl}methanol], in the test with ApoE (Homo sapiens, MeWo), the 50% effective concentration (EC50) is less than 1000 nM and the Emax at 10 µM is more than 80%. Further, the Emax at 1 µM with ApoE (Homo sapiens, MeWo, 1 μM) was more than 80%.

In the case of `CS(=O)(=O)c1cc(OCCCN(CCc2ccccc2)Cc2cccc(C(F)(F)F)c2Cl)cc(F)c1CO` [Compound 81, {4-[3-({[2-chloro-3-(trifluoromethyl)phenyl]methyl}(2-phenylethyl)amino)propoxy]-2-fluoro-6-methanesulfonylphenyl}methanol], in the test with ApoE (Homo sapiens, MeWo), the 50% effective concentration (EC50) was less than 300 nM and the Emax at 10 µM was more than 40%. Moreover, in the test with ApoE (Homo sapiens, MeWo, 1 μM), the Emax at 1 µM is more than 40%.

As for `CC(C)(CN(CCCOc1cc(F)c(CO)c(S(C)(=O)=O)c1)Cc1cccc(C(F)(F)F)c1Cl)c1ccccc1` [Compound 82, {4-[3-({[2-chloro-3-(trifluoromethyl)phenyl]methyl}(2-methyl-2-phenylpropyl)amino)propoxy]-2-fluoro-6-methanesulfonylphenyl}methanol], the Emax at 1 µM in the test with ApoE (Homo sapiens, MeWo, 1 μM) is more than 40%.

The molecule `CS(=O)(=O)c1cc(OCCCN(Cc2ccccc2)Cc2cccc(C(F)(F)F)c2Cl)cc(F)c1CO` [Compound 83, (4-{3-[benzyl({[2-chloro-3-(trifluoromethyl)phenyl]methyl})amino]propoxy}-2-fluoro-6-methanesulfonylphenyl) methanol] had an EC50 with ApoE (Homo sapiens, MeWo) of less than 1000 nM. The Emax at 1 µM in the test with ApoE (Homo sapiens, MeWo, 1 μM) was more than 80%.

For `[2H]C([2H])(O)c1c(F)cc(OCCCN(Cc2cccc(C(F)(F)F)c2Cl)CC(c2ccccc2)c2ccccc2)cc1S(C)(=O)=O` [Compound 84, {4-[3-({[2-chloro-3-(trifluoromethyl)phenyl]methyl}(2,2-diphenylethyl)amino)propoxy]-2-fluoro-6-methanesulfonylphenyl}(^2H2)methanol], the Emax at 1 µM in the test with ApoE (Homo sapiens, MeWo, 1 μM) is more than 40%. For the same molecule, in the test on ApoE (Homo sapiens, MeWo), the Emax at 10 µM was more than 40%.

Turning to `CC(O)c1c(F)cc(OCCCN(Cc2cccc(C(F)(F)F)c2Cl)CC(c2ccccc2)c2ccccc2)cc1S(C)(=O)=O` (stereo not shown) [Compound 85, 1-{4-[3-({[2-chloro-3-(trifluoromethyl)phenyl]methyl}(2,2-diphenylethyl)amino)propoxy]-2-fluoro-6-methanesulfonylphenyl}ethan-1-ol], in the test with ApoE (Homo sapiens, MeWo), the half-maximal effective concentration (EC50) was less than 1000 nM. Also, the Emax at 1 µM with ApoE (Homo sapiens, MeWo, 1 μM) is more than 80%.

Regarding `CC(=O)c1c(F)cc(OCCCN(Cc2cccc(C(F)(F)F)c2Cl)CC(c2ccccc2)c2ccccc2)cc1S(C)(=O)=O` [Compound 87, 1-{4-[3-({[2-chloro-3-(trifluoromethyl)phenyl]methyl}(2,2-diphenylethyl)amino)propoxy]-2-fluoro-6-methanesulfonylphenyl}ethan-1-one], in the test with ApoE (Homo sapiens, MeWo, 1 μM), the Emax at 1 µM was more than 40%.

Turning to `CS(=O)(=O)c1cc(OCCCN(Cc2cccc(C(F)(F)F)c2Cl)CC(c2ccccc2)c2ccccc2)cc(F)c1CN` [Compound 88, {4-[3-({[2-chloro-3-(trifluoromethyl)phenyl]methyl}(2,2-diphenylethyl)amino)propoxy]-2-fluoro-6-methanesulfonylphenyl}methanamine], the Emax at 1 µM in the test with ApoE (Homo sapiens, MeWo, 1 μM) was more than 80%.

Turning to `CC(=O)NCc1c(F)cc(OCCCN(Cc2cccc(C(F)(F)F)c2Cl)CC(c2ccccc2)c2ccccc2)cc1S(C)(=O)=O` [Compound 89, N-({4-[3-({[2-chloro-3-(trifluoromethyl)phenyl]methyl}(2,2-diphenylethyl)amino)propoxy]-2-fluoro-6-methanesulfonylphenyl}methyl)acetamide], in the test on ApoE (Homo sapiens, MeWo), the EC50 is less than 1000 nM and the Emax at 10 µM was more than 80%. For the same molecule, in the test with ApoE (Homo sapiens, MeWo, 1 μM), the Emax at 1 µM was more than 80%.

In turn, `CS(=O)(=O)c1cc(OCCCN(Cc2cccc(C(F)(F)F)c2Cl)CC(c2ccccc2)c2ccccc2)cc(F)c1C(N)=O` [Compound 90, 4-[3-({[2-chloro-3-(trifluoromethyl)phenyl]methyl}(2,2-diphenylethyl)amino)-propoxy]-2-fluoro-6-methanesulfonylbenzamide] yielded a concentration for a half-maximal effect (EC50) in the test with ApoE (Homo sapiens, MeWo) of less than 1000 nM. Also, in the test on ApoE (Homo sapiens, MeWo, 1 μM), the Emax at 1 µM is more than 80%.

In the case of `CS(=O)(=O)c1cc(OCCCN(Cc2cccc(C(F)(F)F)c2Cl)CC(c2ccccc2)c2ccccc2)cc(F)c1CCO` [Compound 91, 2-{4-[3-({[2-chloro-3-(trifluoromethyl)phenyl]methyl}(2,2-diphenylethyl)amino)propoxy]-2-fluoro-6-methanesulfonylphenyl} ethan-1-ol], the Emax at 1 µM with ApoE (Homo sapiens, MeWo, 1 μM) was more than 80%. Also, in the test on ApoE (Homo sapiens, MeWo), the Emax at 10 µM was more than 40%.

As for `CNC(=O)c1c(F)cc(OCCCN(Cc2cccc(C(F)(F)F)c2Cl)CC(c2ccccc2)c2ccccc2)cc1S(C)(=O)=O` [Compound 92, 4-[3-({[2-chloro-3-(trifluoromethyl)phenyl]methyl}(2,2-diphenylethyl)amino)-propoxy]-2-fluoro-6-methanesulfonyl-N-methylbenzamide], in the test with ApoE (Homo sapiens, MeWo, 1 μM), the Emax at 1 µM is more than 40%.

On to `CS(=O)(=O)c1cc(OCCCN(Cc2cccc(C(F)(F)F)c2Cl)CC(c2ccccc2)c2ccccc2)cc(F)c1C(=O)C(F)(F)F` [Compound 93, 1-{4-[3-({[2-chloro-3-(trifluoromethyl)phenyl]methyl}(2,2-diphenylethyl)amino)propoxy]-2-fluoro-6-methanesulfonylphenyl}-2,2,2-trifluoroethan-1-one], for which the Emax at 1 µM in the test on ApoE (Homo sapiens, MeWo, 1 μM) is less than 40%. The Emax at 10 µM in the test on ApoE (Homo sapiens, MeWo) was less than 40%.

Turning to `CS(=O)(=O)c1cc(OCCCN(Cc2cccc(C(F)(F)F)c2Cl)CC(c2ccccc2)c2ccccc2)cc(F)c1C(O)C(F)(F)F` (stereo not shown) [Compound 95, 1-{4-[3-({[2-chloro-3-(trifluoromethyl)phenyl]methyl}(2,2-diphenylethyl)amino)propoxy]-2-fluoro-6-methanesulfonylphenyl}-2,2,2-trifluoroethan-1-ol], the Emax at 1 µM with ApoE (Homo sapiens, MeWo, 1 μM) was more than 40%.

For `CN(C)C(=O)c1c(F)cc(OCCCN(Cc2cccc(C(F)(F)F)c2Cl)CC(c2ccccc2)c2ccccc2)cc1S(C)(=O)=O` [Compound 96, 4-[3-({[2-chloro-3-(trifluoromethyl)phenyl]methyl}(2,2-diphenylethyl)amino)propoxy]-2-fluoro-6-methanesulfonyl-N,N-dimethylbenzamide], the Emax at 1 µM in the test on ApoE (Homo sapiens, MeWo, 1 μM) was more than 40%.
